The values below come from BindingDB's records for doi:10.1124/jpet.300.3.1122 (Sanofi-Synthelabo Recherche, 2002).

The target in one assay is Vasopressin V2 receptor (Rattus norvegicus, UniProt Q00788).
The target of a further assay is T1, Oxytocin receptor (Rattus norvegicus, UniProt P70536).
T1 sequence (P70536 whole entry): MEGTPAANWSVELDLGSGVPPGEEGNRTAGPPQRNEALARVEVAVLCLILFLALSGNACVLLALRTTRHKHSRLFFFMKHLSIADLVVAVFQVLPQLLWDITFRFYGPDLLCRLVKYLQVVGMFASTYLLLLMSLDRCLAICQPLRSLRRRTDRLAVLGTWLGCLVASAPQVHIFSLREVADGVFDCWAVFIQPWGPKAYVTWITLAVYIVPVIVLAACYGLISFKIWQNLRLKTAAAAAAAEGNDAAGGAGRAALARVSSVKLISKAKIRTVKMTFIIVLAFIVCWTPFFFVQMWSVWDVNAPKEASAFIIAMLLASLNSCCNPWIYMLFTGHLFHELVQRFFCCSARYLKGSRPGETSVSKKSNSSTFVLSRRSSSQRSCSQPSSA

A further assay has as its target Vasopressin V1a receptor (Rattus norvegicus, UniProt P30560).
The target of another assay is T2, Vasopressin V1b receptor (Bos taurus, UniProt F1ME85).
T2 sequence (F1ME85 whole entry): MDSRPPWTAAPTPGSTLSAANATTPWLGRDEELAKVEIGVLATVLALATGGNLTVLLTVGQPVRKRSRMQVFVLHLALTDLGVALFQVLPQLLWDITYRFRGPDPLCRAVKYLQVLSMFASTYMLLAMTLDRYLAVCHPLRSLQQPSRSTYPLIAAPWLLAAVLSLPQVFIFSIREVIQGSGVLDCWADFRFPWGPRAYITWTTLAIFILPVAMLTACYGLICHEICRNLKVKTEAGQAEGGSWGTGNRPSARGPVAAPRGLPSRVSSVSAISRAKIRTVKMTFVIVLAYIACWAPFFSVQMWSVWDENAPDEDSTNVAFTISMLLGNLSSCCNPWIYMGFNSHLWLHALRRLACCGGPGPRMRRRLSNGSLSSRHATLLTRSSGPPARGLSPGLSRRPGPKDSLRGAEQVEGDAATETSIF

Chain of Vasopressin V1a receptor (P30560 whole entry): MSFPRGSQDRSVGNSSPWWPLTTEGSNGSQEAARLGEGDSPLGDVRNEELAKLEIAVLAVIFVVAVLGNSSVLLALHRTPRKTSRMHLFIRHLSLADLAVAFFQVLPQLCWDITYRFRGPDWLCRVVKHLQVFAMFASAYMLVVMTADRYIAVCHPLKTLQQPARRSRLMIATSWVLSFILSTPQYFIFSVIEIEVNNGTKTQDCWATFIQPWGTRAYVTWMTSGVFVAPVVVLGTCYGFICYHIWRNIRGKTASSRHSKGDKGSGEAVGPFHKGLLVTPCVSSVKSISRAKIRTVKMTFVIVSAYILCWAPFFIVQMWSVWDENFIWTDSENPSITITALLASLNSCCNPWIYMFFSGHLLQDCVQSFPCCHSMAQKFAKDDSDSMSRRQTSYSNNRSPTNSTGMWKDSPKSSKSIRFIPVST
Chain of Vasopressin V2 receptor (Q00788 whole entry): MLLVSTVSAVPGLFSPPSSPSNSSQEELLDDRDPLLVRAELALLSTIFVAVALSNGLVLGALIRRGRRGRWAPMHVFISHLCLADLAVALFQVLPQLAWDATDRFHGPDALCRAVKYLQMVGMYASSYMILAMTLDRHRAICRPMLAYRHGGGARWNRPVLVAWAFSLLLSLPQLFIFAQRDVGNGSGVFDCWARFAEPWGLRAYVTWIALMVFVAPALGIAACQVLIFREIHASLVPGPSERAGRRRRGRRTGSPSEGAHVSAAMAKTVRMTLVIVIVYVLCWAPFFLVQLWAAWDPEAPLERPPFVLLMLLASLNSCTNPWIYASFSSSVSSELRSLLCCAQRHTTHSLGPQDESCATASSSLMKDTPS

As a reminder, the Ki is the equilibrium dissociation constant of an inhibitor or competing ligand from its target. A high value points to weaker binding. On to `COc1ccc(S(=O)(=O)N2C(=O)[C@@](c3ccccc3OC)(N3C[C@H](O)C[C@H]3C(=O)N(C)C)c3cc(Cl)ccc32)c(OC)c1` [SSR149415], for which the Ki at Vasopressin V2 receptor is 2900 nM; at Oxytocin receptor it was 270 nM; on Vasopressin V1a receptor, 1050 nM; at Vasopressin V1b receptor it was 2.7 nM.
